Test results: ChEMBL document CHEMBL1137581, “Synthesis of 1-deoxy-1-hydroxymethyl- and 1-deoxy-1-epi-hydroxymethyl castanospermine as new potential immunomodulating agents” (2007)
The source made the active and inactive calls. No cut-off for these calls is given here.

Tests used:
[1] = species on record: Homo sapiens; experiment: Inhibition of human beta glucosidase
[2] = Enhancement of ConA-induced IL2 secretion in Swiss Albino mouse splenocytes by ELISA relative to control; type: functional, Splenocyte
[3] = target: T1, Alpha-galactosidase A (Homo sapiens) (UniProt P06280); experiment: Inhibition of human alpha galactosidase
T1 sequence (whole entry): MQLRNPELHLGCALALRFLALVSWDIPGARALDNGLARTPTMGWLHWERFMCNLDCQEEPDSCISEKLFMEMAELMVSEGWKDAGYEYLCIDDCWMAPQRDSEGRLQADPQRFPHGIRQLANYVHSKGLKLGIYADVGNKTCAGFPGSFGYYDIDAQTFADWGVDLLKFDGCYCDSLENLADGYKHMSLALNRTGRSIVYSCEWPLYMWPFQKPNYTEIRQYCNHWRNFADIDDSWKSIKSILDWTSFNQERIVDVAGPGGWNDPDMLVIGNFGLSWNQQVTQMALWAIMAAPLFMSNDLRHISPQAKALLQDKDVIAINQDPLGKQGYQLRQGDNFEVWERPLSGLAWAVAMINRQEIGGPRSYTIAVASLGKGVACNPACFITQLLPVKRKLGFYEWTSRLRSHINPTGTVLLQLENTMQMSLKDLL

[4] = Enhancement of ConA-induced proliferation in Swiss Albino mouse splenocyte at 100 uM after 72 hrs by MTT assay relative to control; type: functional
[5] = species on record: Homo sapiens; experiment: Inhibition of human beta galactosidase
[6] = Enhancement of ConA-induced proliferation in Swiss Albino mouse splenocyte at 5 uM after 72 hrs by MTT assay relative to control; type: functional
[7] = Enhancement of ConA-induced proliferation in Swiss Albino mouse splenocyte at 10 uM after 72 hrs by MTT assay relative to control; type: functional
[8] = Enhancement of ConA-induced IFN-gamma secretion in Swiss Albino mouse splenocytes by ELISA relative to control; type: functional, Splenocyte
[9] = Reduction of ConA-induced IL4 secretion in Swiss Albino mouse splenocytes by ELISA relative to control; type: functional, Splenocyte; design: scale not given: the % may be the effect or the level left
[10] = target: Mannosyl-oligosaccharide 1,2-alpha-mannosidase IA (Homo sapiens) (UniProt P33908); experiment: Inhibition of human alpha mannosidase
Sequence of Mannosyl-oligosaccharide 1,2-alpha-mannosidase IA (Homo sapiens) (P33908 whole entry): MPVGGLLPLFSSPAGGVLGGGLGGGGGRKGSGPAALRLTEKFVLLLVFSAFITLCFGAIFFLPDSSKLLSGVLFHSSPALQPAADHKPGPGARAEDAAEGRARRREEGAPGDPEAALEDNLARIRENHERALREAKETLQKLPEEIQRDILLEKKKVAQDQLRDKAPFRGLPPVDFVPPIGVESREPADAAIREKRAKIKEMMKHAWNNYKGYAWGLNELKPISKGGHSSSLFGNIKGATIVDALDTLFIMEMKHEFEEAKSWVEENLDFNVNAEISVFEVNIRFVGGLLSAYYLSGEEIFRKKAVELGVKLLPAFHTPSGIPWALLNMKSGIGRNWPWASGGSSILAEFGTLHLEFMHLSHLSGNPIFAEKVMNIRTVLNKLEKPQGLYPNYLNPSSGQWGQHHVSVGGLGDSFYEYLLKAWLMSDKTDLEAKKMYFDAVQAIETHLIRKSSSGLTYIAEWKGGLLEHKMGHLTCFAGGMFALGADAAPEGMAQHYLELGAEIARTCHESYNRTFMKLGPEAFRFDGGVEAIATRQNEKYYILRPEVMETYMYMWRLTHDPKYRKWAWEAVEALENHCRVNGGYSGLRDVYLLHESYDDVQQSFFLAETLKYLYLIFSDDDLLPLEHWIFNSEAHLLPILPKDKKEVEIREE

[11] = target: T2, Neutral alpha-glucosidase AB (Homo sapiens) (UniProt Q14697); experiment: Inhibition of human alpha glucosidase
T2 sequence (whole entry): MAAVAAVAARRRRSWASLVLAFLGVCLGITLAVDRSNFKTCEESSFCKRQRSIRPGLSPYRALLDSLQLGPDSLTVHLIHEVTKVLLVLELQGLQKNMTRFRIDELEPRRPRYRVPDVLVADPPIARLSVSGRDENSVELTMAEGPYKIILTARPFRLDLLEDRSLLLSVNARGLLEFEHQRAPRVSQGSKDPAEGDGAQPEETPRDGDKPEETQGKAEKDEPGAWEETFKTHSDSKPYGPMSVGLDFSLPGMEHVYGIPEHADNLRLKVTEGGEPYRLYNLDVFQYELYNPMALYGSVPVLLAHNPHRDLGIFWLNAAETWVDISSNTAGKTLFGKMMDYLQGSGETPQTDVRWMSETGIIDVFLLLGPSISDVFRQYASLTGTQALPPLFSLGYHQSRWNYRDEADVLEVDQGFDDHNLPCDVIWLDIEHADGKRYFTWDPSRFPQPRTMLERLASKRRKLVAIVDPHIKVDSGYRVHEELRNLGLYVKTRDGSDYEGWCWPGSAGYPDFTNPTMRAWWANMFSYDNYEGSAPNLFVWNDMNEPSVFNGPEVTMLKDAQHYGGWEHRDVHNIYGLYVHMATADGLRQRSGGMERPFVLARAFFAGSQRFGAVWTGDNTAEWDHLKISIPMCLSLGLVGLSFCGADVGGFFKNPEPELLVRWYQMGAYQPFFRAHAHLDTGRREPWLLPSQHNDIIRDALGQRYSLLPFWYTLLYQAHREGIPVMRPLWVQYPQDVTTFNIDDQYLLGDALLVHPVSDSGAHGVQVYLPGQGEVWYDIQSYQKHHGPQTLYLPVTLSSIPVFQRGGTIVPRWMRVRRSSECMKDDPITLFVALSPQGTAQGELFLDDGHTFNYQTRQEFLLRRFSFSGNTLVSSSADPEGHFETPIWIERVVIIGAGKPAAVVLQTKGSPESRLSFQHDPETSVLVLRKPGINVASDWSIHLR

[12] = Enhancement of ConA-induced proliferation in Swiss Albino mouse splenocyte at 20 uM after 72 hrs by MTT assay relative to control; type: functional
[13] = test system: Splenocyte; experiment: (§1) Enhancement of ConA-induced proliferation in Swiss Albino mouse splenocyte at 75 uM after 72 hrs by MTT assay relative to control; type: functional
[14] = Enhancement of ConA-induced IL6 secretion in Swiss Albino mouse splenocytes by ELISA relative to control; type: functional, Splenocyte
[15] = as §1; type: functional

SMILES | Activity [1] | Activity [2] | Activity [3] | Activity [4] | Activity [5] | Activity [6] | Activity [7] | Activity [8] | Activity [9] | Activity [10] | Activity [11] | Activity [12] | Activity [13] | Ratio [14] | Activity [15]
OC[C@H]1CCN2C[C@H](O)[C@@H](O)[C@H](O)[C@@H]12 | inactive | 6.6% | inactive | 27% | inactive | 161% | 109% | 40.5% | 20.6% | inactive | inactive | 40% | inactive | >5.5 | –
OC[C@@H]1CCN2C[C@H](O)[C@@H](O)[C@H](O)[C@@H]12 | inactive | 3.3% | inactive | 31% | inactive | 19% | 61% | 9.5% | 47% | inactive | inactive | 69% | – | >9 | 41%
